A flash point compilation (Sun et al. 2020)
Structures can show the parent of a compound that is named as a salt.

| Compound | flash point [°C] |
| --- | --- |
| CCCCCCCC(C)=O [nonan-2-one] | 64.00 |
| COC(=O)Nc1cccc(OC(=O)Nc2cccc(C)c2)c1 [[3-(methoxycarbonylamino)phenyl] N-(3-methylphenyl)carbamate] | 74.00 |
| CCC(C(=O)O)C(=O)O [2-ethylpropanedioic acid] | 85.00 |
| CC=CCCCCCC [non-2-ene] | 26.00 |
| Nc1ccncc1 [pyridin-4-amine] | 164.00 |
| CC(O)CC=O (stereo not given) [3-hydroxybutanal] | 66.00 |
| O=C1CCCc2ccccc21 [3,4-dihydro-2H-naphthalen-1-one] | 129.00 |
| CC(Cl)(Cl)[N+](=O)[O-] [1,1-dichloro-1-nitroethane] | 76.00 |
| C=C(C)C(=O)OC [methyl 2-methylprop-2-enoate] | 10.00 |
| O=C(CCl)c1ccccc1 [2-chloro-1-phenylethanone] | 118.00 |
| C=CC(=O)OCCO [2-hydroxyethyl prop-2-enoate] | 101.00 |
| O=[N+]([O-])c1c(Cl)c(Cl)c(Cl)c(Cl)c1Cl [1,2,3,4,5-pentachloro-6-nitrobenzene] | 127.00 |
| CC1CCCCC1O (stereo not given) [2-methylcyclohexan-1-ol] | 59.00 |
| Br/C=C/c1ccccc1 [[(E)-2-bromoethenyl]benzene] | 79.00 |
| CCCCCCCC(=O)Oc1c(Br)cc(C#N)cc1Br [(2,6-dibromo-4-cyanophenyl) octanoate] | 102.00 |
| FC(F)(F)c1ccccc1 [trifluoromethylbenzene] | 12.00 |
| O=C1CCCCCO1 [oxepan-2-one] | 127.00 |
| CCCCC(CC)COC(=O)/C=C\C(=O)OCC(CC)CCCC (stereo not given) [bis(2-ethylhexyl) (Z)-but-2-enedioate] | 185.00 |
| CCC(C)C(C)CO (stereo not given) [2,3-dimethylpentan-1-ol] | 61.00 |
| Nc1ccccc1N [benzene-1,2-diamine] | 156.00 |
| Cc1cccc(N)c1 [3-methylaniline] | 86.00 |
| Cc1ccc2cccnc2c1 [7-methylquinoline] | 110.00 |
| C=C(C)CO [2-methylprop-2-en-1-ol] | 33.00 |
| CCOCCOCC [1,2-diethoxyethane] | 35.00 |
| C=C(C)C(=O)OCC [ethyl 2-methylprop-2-enoate] | 16.00 |

| Compound | flash point [°C] |
| --- | --- |
| CCc1ccccc1O [2-ethylphenol] | 78.00 |
| CCCCC(CC)CN1C(=O)C2C3C=CC(C3)C2C1=O (stereo not given) | 177.00 |
| O=[N+]([O-])c1ccccc1 [nitrobenzene] | 88.00 |
| CC(C)CC(=O)CC(C)C [2,6-dimethylheptan-4-one] | 60.00 |
| Cc1ccc(N)c(C)c1 [2,4-dimethylaniline] | 96.00 |
| CN1CCC[C@H]1c1cccnc1 [3-[(2S)-1-methylpyrrolidin-2-yl]pyridine] | 95.00 |
| O=C(OOC(=O)c1ccccc1)c1ccccc1 [benzoyl benzenecarboperoxoate] | 80.00 |
| O=C(O)CCCCC(=O)O [hexanedioic acid] | 191.00 |
| Nc1ccc(Cl)c(Cl)c1 [3,4-dichloroaniline] | 166.00 |
| CCc1ccc(C)nc1 [5-ethyl-2-methylpyridine] | 68.00 |
| CCC=O [propanal] | -9.00 |
| CC(=O)CC(C)C [4-methylpentan-2-one] | 23.00 |
| CC=CC=CC(=O)O [hexa-2,4-dienoic acid] | 127.00 |
| OCC1CO1 (stereo not given) [oxiran-2-ylmethanol] | 72.00 |
| CCCCCCCCCCCCCCCCCC(=O)[O-].[Cl-].[Cl-].[Cl-].[Cl-].[Cr+3].[Cr+3].[OH-] [chromium(3+);octadecanoate;tetrachloride;hydroxide] | 2.00 |
| C#CCC1=C(C)C(OC(=O)[C@H]2[C@H](C=C(C)C)C2(C)C)CC1=O (stereo not given in full) | 139.00 |
| O=Cc1ccco1 [furan-2-carbaldehyde] | 60.00 |
| C[O-].[K+] [potassium;methanolate] | 11.00 |
| CC(=O)OC(C)C [propan-2-yl acetate] | 2.00 |
| CN(C)CCC#N [3-(dimethylamino)propanenitrile] | 64.00 |
| C=C(C)C(=O)OC(C)C [propan-2-yl 2-methylprop-2-enoate] | 21.00 |
| CC(C)=CCC/C(C)=C\CO [(2Z)-3,7-dimethylocta-2,6-dien-1-ol] | 107.00 |
| CCCN(CCCl)c1c([N+](=O)[O-])cc(C(F)(F)F)cc1[N+](=O)[O-] | 30.00 |
| CCO [ethanol] | 13.00 |
| CC=C1CC2C=CC1C2 (stereo not given) [5-ethylidenebicyclo[2.2.1]hept-2-ene] | 26.00 |

| Compound | flash point [°C] |
| --- | --- |
| Nc1ccccc1Cl [2-chloroaniline] | 98.00 |
| CC(C)CN(CC(C)C)CC(C)C [2-methyl-N,N-bis(2-methylpropyl)propan-1-amine] | 51.00 |
| CCCCC#N [pentanenitrile] | 41.00 |
| O=C(O)c1cccnc1 [pyridine-3-carboxylic acid] | 193.00 |
| OOC1(OOC2(O)CCCCC2)CCCCC1 [1-(1-hydroperoxycyclohexyl)peroxycyclohexan-1-ol] | 157.00 |
| C=CC1CO1 (stereo not given) [2-ethenyloxirane] | -46.00 |
| CC(C)c1ccccc1C(C)C [1,2-di(propan-2-yl)benzene] | 77.00 |
| C=CC(=O)OCCC#N [2-cyanoethyl prop-2-enoate] | 124.00 |
| C=Cc1ccc(C)cc1 [1-ethenyl-4-methylbenzene] | 52.00 |
| NCCCCCCN [hexane-1,6-diamine] | 81.00 |
| CC1COC(=O)O1 (stereo not given) [4-methyl-1,3-dioxolan-2-one] | 116.00 |
| COC=O [methyl formate] | -32.00 |
| CCCCOC(=O)c1ccc(O)cc1 [butyl 4-hydroxybenzoate] | 181.00 |
| CC(N)c1ccccc1 (stereo not given) [1-phenylethanamine] | 79.00 |
| CC(O)C(C)O (stereo not given) [butane-2,3-diol] | 85.00 |
| C1=CCC=C1 [InChI=1S/C5H6/c1-2-4-5-3-1/h1-4H,5H2] | 25.00 |
| CN(C)Cc1cc(CN(C)C)c(O)c(CN(C)C)c1 [2,4,6-tris[(dimethylamino)methyl]phenol] | 124.00 |
| CCCCCCC(C)=O [octan-2-one] | 52.00 |
| CCC(C)(C)c1ccc(O)cc1 [4-(2-methylbutan-2-yl)phenol] | 111.00 |
| CC(=O)CCC(C)C [5-methylhexan-2-one] | 36.00 |
| O=C([O-])CN(CCO)CCN(CC(=O)[O-])CC(=O)[O-].[Na+].[Na+].[Na+] | 100.00 |
| CC(C)(C)OOC(=O)c1ccccc1 [tert-butyl benzenecarboperoxoate] | 93.00 |
| OCc1ccco1 [furan-2-ylmethanol] | 75.00 |
| C#CCOc1cccc(-c2cc(C(F)(F)F)nc(S(=O)CC)n2)c1 (stereo not given) | 240.00 |
| COCCOCCOCCOC [1-methoxy-2-[2-(2-methoxyethoxy)ethoxy]ethane] | 111.00 |

| Compound | flash point [°C] |
| --- | --- |
| CCOCC(C)OC(C)=O (stereo not given) [1-ethoxypropan-2-yl acetate] | 53.00 |
| CC(C)CCCCCOC(=O)COc1cc(Cl)c(Cl)cc1Cl [6-methylheptyl 2-(2,4,5-trichlorophenoxy)acetate] | 69.00 |
| CC(C#N)CCC#N (stereo not given) [2-methylpentanedinitrile] | 126.00 |
| CC(C)OC(C)C [2-propan-2-yloxypropane] | -28.00 |
| CCOS(=O)(=O)OCC [diethyl sulfate] | 104.00 |
| CC(C)C(C)C [2,3-dimethylbutane] | -29.00 |
| CC[Si](Cl)(Cl)Cl [trichloro(ethyl)silane] | 22.00 |
| O=C(OCC1CO1)C1CCCCC1C(=O)OCC1CO1 (stereo not given) [bis(oxiran-2-ylmethyl) cyclohexane-1,2-dicarboxylate] | 190.00 |
| CC(=O)C(C)O (stereo not given) [3-hydroxybutan-2-one] | 41.00 |
| Cc1ccccc1OCC1CO1 (stereo not given) [2-[(2-methylphenoxy)methyl]oxirane] | 93.00 |
| CC(C)(C)Br [2-bromo-2-methylpropane] | -16.00 |
| CCCCO.[Ti] [butan-1-ol;titanium] | 77.00 |
| CCCC=C(C=O)CC [2-ethylhex-2-enal] | 68.00 |
| O=c1oc2ccccc2c(O)c1C(CC(O)c1ccc(-c2ccc(Br)cc2)cc1)c1ccccc1 (stereo not given) | 218.00 |
| C=CCCl [3-chloroprop-1-ene] | -32.00 |
| C=C(C)C(=O)OCC(CC)CCCC (stereo not given) [2-ethylhexyl 2-methylprop-2-enoate] | 92.00 |
| CCCCOCC(C)O (stereo not given) [1-butoxypropan-2-ol] | 63.00 |
| CC12CCC(CC1)C(C)(C)O2 [1,3,3-trimethyl-2-oxabicyclo[2.2.2]octane] | 49.00 |
| CCCCCNCCCCC [N-pentylpentan-1-amine] | 51.00 |
| CCOCC(C)O (stereo not given) [1-ethoxypropan-2-ol] | 40.00 |
| CCCCN(CCO)CCCC [2-(dibutylamino)ethanol] | 99.00 |
| CC(=O)CC(=O)Nc1ccccc1 [3-oxo-N-phenylbutanamide] | 163.00 |
| OC(CCl)CCl [1,3-dichloropropan-2-ol] | 74.00 |
| CC1CCC2CC1C2(C)C (stereo not given) [2,6,6-trimethylbicyclo[3.1.1]heptane] | 40.00 |
| CCCCCCCCc1ccc(O)cc1 [4-octylphenol] | 113.00 |
